Results taken from patent US20250270170A1, “2,3-DIMETHOXY-5-METHYL-1,4-BENZOQUINONE ALKYL ALCOHOL DERIVATIVE AND USE THEREOF” (BEIJING ANJIANXI BIO-MEDICAL TECHNOLOGY CO., LTD., priority 2021, published 2025).

How the values were obtained:
[1] = Example 8: serum UREA at the end of the assay; assay type: in vivo, nude mice; conditions: DDP 5 mg/kg i.p. QW×4
Text: The assay animals, calculation of tumor volume (TV), end of assay, data recording, calculation formula of tumor growth inhibition rate TGI (%), and statistical analysis method were the same as those in Example 3; the preparation of the administration formulation of the compound of formula (I) was the same as that in Example 5. [table]

[2] = tested on: A549 cells; experiment: Flow cytometry for apoptosis detection (Annexin V-FITC/PI), A549; assay type: cell-based, human; conditions: 72 h
Procedure: (1) Cells were inoculated in a 6-well plate. When the cell growth density was appropriate, four concentrations (0 μM, 10 μM, 30 μM, and 90 μM) of the compound of formula (I) were added, and placed in an incubator at 37° C. with 5% CO2 to continue culturing for 72 hours.
(2) After reaching the designated time point, the cell culture plate was taken out from the incubator, and placed in a biological safety cabinet. A 4 ml centrifuge tube was taken and marked. The supernatant in the 6-well plate was pipetted out and added to the corresponding 4 ml centrifuge tube. The cells were gently washed with PBS, and the PBS was added to the corresponding centrifuge tube. An appropriate amount of trypsin was added to each well to digest the cells. When the cells were digested to a moderate degree, the liquid in the centrifuge tube was added to the corresponding well. The cells were gently pipetted with a pipette to disperse the cells, and was pipetted back into the original centrifuge tube. The tube was immediately centrifuged at 1500 rpm for 5 minutes. Then, the supernatant was discarded and the precipitate was retained.
(3) 2 ml of PBS was added to the centrifuge tube, which was centrifuged again at 1000 rpm for 5 minutes. The supernatant was discarded. This step was repeated again.
(4) The cells were suspended with 1× Binding buffer, and the cell concentration was adjusted to approximately 1×10^6 cells/ml. 100 μl of cell suspension was added to the flow cytometry tube, and 5 μl of PI and 5 μl of Annexin V-FITC were added to each tube. The cells were gently vortexed, and incubated at room temperature in dark for 15 min.
(5) 400 μl of 1× Binding buffer was further added to each tube, and the detection was performed on the flow cytometer (the detection was in need to be completed within 1 hour).
We used AnnexinV-FITC and PI double staining method for apoptosis staining. FL1 channel was selected for FITC, and FL2 channel was selected for PI. Flow cytometry analysis was used to detect cell apoptosis. Q1, Q2, Q3, and Q4 represented dead cells, late apoptotic cells, early apoptotic cells, and normal cells, respectively (FIG. 7). After treating A549 and NCI-H460 cells with the compound of formula (I) at different concentrations (0 μM, 10 μM, 30 μM, and 90 μM) for 72 h, the flow cytometry results are as follows. Table 1 and Table 2 show the proportions of dead cells, late apoptotic cells, early apoptotic cells, and normal cells after treating the A549 and NCI-H460 cells with different concentrations of the compound of formula (I), respectively.

[3] = tested on: NCI-H460 cells; experiment: Cell EDU proliferation assay, NCI-H460; assay type: cell-based, human; conditions: 150 μM
Procedure: The compound of formula (I) at a concentration of 150 μM was co-cultured with the cells for 42 h, and then the FBS concentration in the FBS stimulation well was increased to 20%. The cells were cultured for another 6 h, and then detected using a Cell-Light EDUApollo567 kit.
(1) Cells in the logarithmic growth phase were taken, and inoculated into a 24-well culture plate at 1×10^4 cells per well. The culture plate was cultured in a 37° C. incubator under the condition of 5% CO2, and drug was added according to the assay design when the cells adhered to the wall.
(2) After the drug treatment, the Cell-Light EDU Apollo567 kit was taken out. The reagent A in the kit was diluted with 1640 complete culture medium at a ratio of 1000:1 to prepare a 50 μM EDU culture medium, 300 μl of which was configured to each well of the 24-well plate. The 24-well plate was taken out from the incubator, and the original culture medium was aspirated with a vacuum aspirator. […]
(12) 150 μl of PBS was added to each well to wash once, and the PBS was discarded. Then, 200 μl of PBS was added, and the plate was placed on an inverted fluorescence microscope to take pictures. 6 fields of view were taken for each well under a 200× field of view, and the proportion of EDU-positive cells among 100 cells was calculated. […]

SMILES	Serum UREA Mean ± SE [1]	Q1 Gated % (dead cells) ([2]; 10 μM)	Q2 Gated % (late apoptotic cells) ([2]; 10 μM)	Q3 Gated % (early apoptotic cells) ([2]; 10 μM)	Q4 Gated % (normal cells) ([2]; 10 μM)	percentage of apoptosis (total apoptosis) ([2]; 10 μM)	Q1 Gated % (dead cells) ([2]; 30 μM)	Q2 Gated % (late apoptotic cells) ([2]; 30 μM)	Q3 Gated % (early apoptotic cells) ([2]; 30 μM)	Q4 Gated % (normal cells) ([2]; 30 μM)	percentage of apoptosis (total apoptosis) ([2]; 30 μM)	Q1 Gated % (dead cells) ([2]; 90 μM)	Q2 Gated % (late apoptotic cells) ([2]; 90 μM)	Q3 Gated % (early apoptotic cells) ([2]; 90 μM)	Q4 Gated % (normal cells) ([2]; 90 μM)	percentage of apoptosis (total apoptosis) ([2]; 90 μM)	proportion of proliferating cells (EDU) ([3]; 48 hours, vs CTL (0 μM))	cell proliferation under FBS stimulation (EDU) ([3]; FBS increased to 20% for last 6 h)
N.N.[Cl][Pt][Cl] [DDP, cisplatin]	13.43 ± 1.04 mmol/L	–	–	–	–	–	–	–	–	–	–	–	–	–	–	–	–	–
COC1=C(OC)C(=O)C(CCCCCCCCCCOC(=O)Cc2c(C)n(C(=O)c3ccc(Cl)cc3)c3ccc(OC)cc23)=C(C)C1=O [compound of formula (I)]	–	1.07 ± 0.51%	2.57 ± 0.48%	1.86 ± 0.37%	94.5 ± 0.57%	4.43 ± 0.11	1.34 ± 0.19%	3.08 ± 0.16%	2.58 ± 1.38%	93.05 ± 1.34%	5.65 ± 1.54	0.31 ± 0.14%	20.9 ± 3.39%	50.4 ± 1.41%	28.4 ± 4.67%	71.3 ± 4.81	significantly reduced	can inhibit the cell proliferation effect
